Reference: patent US6476017B2, “Compounds activating pharmacological effect of retinoids” (Institute of Medicinal Molecular Design, Inc., priority 1995, dated 2002)

System: promyelocytic leukemia cell strain HL-60
Test: Cell differentiation inducing activity of retinoids on HL-60 in presence/absence of test compound (NBT reduction)
Type: cell-based
Experimental: The effects of the compounds of the above Examples 1 and 2 on cell differentiation induced by retinoids were studied. As retinoid compounds (i.e., agonists against the all-trans retinoic acid receptor), retinoic acid and Am80 (4-[(5,6,7,8-tetrahydro-5,5,8,8-tetramethyl-2-naphthalenyl)carbamoyl]benzoic acid) were used. Cell differentiation inducing activities of the above retinoids on promyelocytic leukemia cell strain HL-60 were measured in the presence and absence of the compounds of Examples 1 and 2 according to the method described in the Japanese Patent Unexamined Publication (KOKAI) No.(Sho)61-76440/1986. The degrees of the differentiation into granulocytic cell were determined by observing nuclear morphologies and measuring abilities to reduce nitroblue tetrazolium (NBT). This method is well known in the art as a test that enables accurate evaluation of the cell differentiation inducing activity of retinoids. The results are shown in the Table 2 set out below (in the table, NTB positive ratio represents a percent value of differentiated cells based on living cells).
Effect of the compound of Example 10 (HX801) on the cell differentiation inducing activity by a retinoid was examined. Am80 was used as the retinoid compound and the cell differentiation inducing activity of the above retinoid on promyelocytic leukemia cell strain HL-60 was determined in the presence or absence of the compound of HX801 in the same manner as Example 15. The results are shown in the Table 3 set out below (in the table, the symbol “-” indicates no addition).

SMILES: CN1C(=O)CN=C(c2ccc(C(=O)O)cc2)c2cc3c(cc21)C(C)(C)CCC3(C)C [HX801, 4-[1,3-dihydro-7,8-(2,5-dimethyl-2,5-hexano)-1-methyl-2-oxo-2H-1,4-benzodiazepine-5-yl]benzoic acid]
- NBT positive ratio (Table 3: Am80 1.0 × 10^−9 M + HX801 1.0 × 10^−6 M): 77%
- NBT positive ratio (Table 3: Am80 1.0 × 10^−9 M + HX801 1.1 × 10^−7 M): 63%
- NBT positive ratio (Table 3: Am80 1.0 × 10^−9 M + HX801 3.3 × 10^−7 M): 76%
- NBT positive ratio (Table 3: Am80 1.1 × 10^−10 M + HX801 1.0 × 10^−6 M): 48%
- NBT positive ratio (Table 3: Am80 1.1 × 10^−10 M + HX801 1.1 × 10^−7 M): 22%
- NBT positive ratio (Table 3: Am80 1.1 × 10^−10 M + HX801 3.3 × 10^−7 M): 28%
- NBT positive ratio (Table 3: Am80 1.2 × 10^−11 M + HX801 1.0 × 10^−6 M): 2%
- NBT positive ratio (Table 3: Am80 1.2 × 10^−11 M + HX801 1.1 × 10^−7 M): 1.4%
- NBT positive ratio (Table 3: Am80 1.2 × 10^−11 M + HX801 3.3 × 10^−7 M): 2%
- NBT positive ratio (Table 3: Am80 3.3 × 10^−10 M + HX801 1.0 × 10^−6 M): 71%
- NBT positive ratio (Table 3: Am80 3.3 × 10^−10 M + HX801 1.1 × 10^−7 M): 49%
- NBT positive ratio (Table 3: Am80 3.3 × 10^−10 M + HX801 3.3 × 10^−7 M): 55%
- NBT positive ratio (Table 3: Am80 3.7 × 10^−11 M + HX801 1.0 × 10^−6 M): 4.4%
- NBT positive ratio (Table 3: Am80 3.7 × 10^−11 M + HX801 1.1 × 10^−7 M): 4%
- NBT positive ratio (Table 3: Am80 3.7 × 10^−11 M + HX801 3.3 × 10^−7 M): 2.3%
- NBT positive ratio (Table 3: HX801 1.0 × 10^−6 M alone, no Am80): 1.1%
- NBT positive ratio (Table 3: HX801 1.1 × 10^−7 M alone, no Am80): 1.1%
- NBT positive ratio (Table 3: HX801 3.3 × 10^−7 M alone, no Am80): 0.3%
